Laboratory results reported in patent publication US8623331B2, “Compressed chewing gum tablet” (Fertin Pharma A/S, priority 2007, dated 2014).
Entries after “also recorded” stand apart in the source; their conditions may differ.

Columns and labels:
[1] = Release control, gum base content different with respect to weight (two-module compressed chewing gum tablet); settings: first layer: NPR with a large amount of gum base; second layer: Na2CO3 with a small amount of gum base
Method: (§1) Control of the release was tested for chewing gum tablets comprising two modules with different gum base content and a different active ingredient in each of them.
In this example a gum base content different with respect to weight was investigated. In the first layer the active ingredient (NPR) was present with a large amount of gum base and in the second layer the active ingredient (Na2CO3 pH control agent) was present with a small amount of gum base.
To ensure that the result of this example was not due to different API in the two layers, the example was further supplemented with a test with two different weights of the same API in the compositions in the two layers, where it was again seen that the release was dependent on the weight of the gum base content in the chewing gum composition.

[2] = Release control, different size of applied chewing gum granules (two-module compressed chewing gum tablet); settings: first layer: NPR with granules of relatively smaller average diameter; second layer: Na2CO3 with granules of relatively larger average diameter
Method: as §1
In this example a gum base content different with respect to size of applied chewing gum granules was investigated.
In the first layer the active ingredient (NPR) was present with chewing gum granules with a relatively smaller average diameter and in the second layer the active ingredient (Na2CO3 pH control agent) was present with chewing gum granules with a relatively larger average diameter.
To ensure that the result of this example was not due to different API in the two layers, the example was further supplemented with a test with the same API in two compositions of different chewing gum granule sizes. Here it was again seen that the release was dependent on the size of the chewing gum granules used in the layers of the gum base content in the chewing gum composition.

[3] = Release control, gum base content different with respect to composition (two-module compressed chewing gum tablet); settings: first layer: NPR outside the gum base granules; second layer: Na2CO3 approx. 50 Wt-% outside and approx. 50 Wt-% incorporated in the granules
Method: as §1
In this example a gum base content different with respect to composition was investigated. In the first layer the active ingredient (NPR) was added to the chewing gum composition outside the gum base granules and in the second layer the active ingredient (Na2CO3 pH control agent) was added approximately 50 Wt-% to the chewing gum composition outside the gum base granules and approximately 50 Wt-% incorporated in the granules.
To ensure that the result of this example was not due to different API in the two layers, the example was further supplemented with a test with the same amount of a same API incorporated in the granules and added directly to the composition respectively, where it was again seen that the release was dependent on the chewing gum composition

O=C([O-])[O-].[Na+].[Na+] [Na2CO3]
release of active ingredient from the chewing gum tablet [1]: faster than the release of the NPR
release of active ingredient from the chewing gum tablet [2]: faster than the release of the NPR
release of active ingredient from the chewing gum tablet [3]: fast release of part of the pH control agent; also recorded: slower release of the remaining part of the pH control agent
